From US8710089B2, “Triazole derivatives as ghrelin analogue ligands of growth hormone secretagogue receptors” (Zentaris GmbH, priority 2005, dated 2014)

These compounds were tested against T1, human GHS-R 1a (Homo sapiens, UniProt Q92847) (assay: GHS-R 1a receptor-ligand binding assay (membrane preparations from transfected LLC PK-1 cells)). Conditions: displacement of 125I-His9-ghrelin (60 pM); membranes of LLC PK-1 cells transfected with human GHS-R 1a; mean of at least two independent experiments in triplicates.
T1 construct: expressed in transfected cells; host or cells: LLC PK-1 porcine renal epithelial cells (ECACC No. 86121112), isolated plasma membranes
Procedure, shortened: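 Membranes from LLC PK-1 cells expressing human GHS-R 1a incubated 60 min at 25 °C in 50 mM Tris pH 7.3, 5 mM MgCl2, 2.5 mM EDTA, bacitracin with 60 pM 125I-ghrelin and competitor; nonspecific binding with 10^-6 M ghrelin; filtration read-out.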

T1 sequence (Q92847 whole entry): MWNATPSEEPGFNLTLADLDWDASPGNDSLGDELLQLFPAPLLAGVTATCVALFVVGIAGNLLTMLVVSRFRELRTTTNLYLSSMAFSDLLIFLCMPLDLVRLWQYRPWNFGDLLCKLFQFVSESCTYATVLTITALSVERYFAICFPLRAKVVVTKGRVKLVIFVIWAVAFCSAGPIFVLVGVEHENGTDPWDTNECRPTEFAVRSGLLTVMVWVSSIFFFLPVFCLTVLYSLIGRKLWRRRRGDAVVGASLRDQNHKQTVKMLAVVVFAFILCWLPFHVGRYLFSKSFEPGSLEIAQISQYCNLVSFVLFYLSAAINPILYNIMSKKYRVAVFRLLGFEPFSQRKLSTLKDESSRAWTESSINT

Row | Compound | IC50 [nM]
1 | CC(C)(C)Sc1nnc([C@@H](COCc2ccccc2)NC(=O)C(C)(C)N)n1Cc1ccccc1 [Example 8 from WO 00/54729 A2, (S)—N-(1-(4-benzyl-5-(tert-butylthio)-1,2,4-triazol-3-yl)-2-(benzyloxy)ethyl)-2-amino-2-methylpropanamide, reference compound] | ~20000
2 | COc1ccc(Cn2c(CCc3ccccc3)nnc2[C@@H](Cc2c[nH]c3ccccc23)NC(=O)c2ccncc2)c(OC)c1 [compound 65, (R)—N-(1-(4-(2,4-dimethoxybenzyl)-5-phenethyl-4H-1,2,4-triazol-3-yl)-2-(1H-indol-3-yl)ethyl)isonicotinamide] | 58
3 | CC(C)(N)C(=O)N[C@H](Cc1c[nH]c2ccccc12)c1nnc(CCc2c[nH]c3ccccc23)n1Cc1ccc(Cl)c(Cl)c1 [compound 28, (R)—N-(1-(5-(2-(1H-indol-3-yl)ethyl)-4-(3,4-dichlorobenzyl)-4H-1,2,4-triazol-3-yl)-2-(1H-indol-3-yl)ethyl)-2-amino-2-methylpropanamide] | 79
4 | O=C(N[C@H](Cc1c[nH]c2ccccc12)c1nnc(Cc2ccccc2)n1Cc1ccccn1)c1ccccn1 [compound 164, N—((R)-1-(5-benzyl-4-((pyridin-2-yl)methyl)-4H-1,2,4-triazol-3-yl)-2-(1H-indol-3-yl)ethyl)picolinamide] | 207
5 | COc1ccc(Cn2c(CCc3c[nH]c4ccccc34)nnc2[C@@H](Cc2c[nH]c3ccccc23)NS(=O)(=O)c2ccc(C)cc2)c(OC)c1 [compound 187, (R)-1-(5-(2-(1H-indol-3-yl)ethyl)-4-(2,4-dimethoxybenzyl)-4H-1,2,4-triazol-3-yl)-2-(1H-indol-3-yl)-N-tosylethanamine] | 66
6 | COc1ccc(Cn2c(CCc3c[nH]c4ccccc34)nnc2[C@@H](Cc2c[nH]c3ccccc23)NC(=O)C2CCCCC2N)c(OC)c1 (stereo partly drawn) [compound 86, (R)—N-(1-(5-(2-(1H-indol-3-yl)ethyl)-4-(2,4-dimethoxybenzyl)-4H-1,2,4-triazol-3-yl)-2-(1H-indol-3-yl)ethyl)-2-cis-aminocyclohexanecarboxamide] | 143
7 | COc1ccc(Cn2c(CCc3ccccc3)nnc2[C@@H](Cc2c[nH]c3ccccc23)NC(=O)c2ccccc2)cc1 [compound 176, N—((R)-1-(4-(4-methoxybenzyl)-5-phenethyl-4H-1,2,4-triazol-3-yl)-2-(1H-indol-3-yl)ethyl)benzamide] | 80
8 | COc1cc(Cn2c(CCc3c[nH]c4ccccc34)nnc2[C@@H](Cc2c[nH]c3ccccc23)NC(=O)C(C)(C)N)cc(OC)c1 [compound 21, (R)—N-(1-(5-(2-(1H-indol-3-yl)ethyl)-4-(3,5-dimethoxybenzyl)-4H-1,2,4-triazol-3-yl)-2-(1H-indol-3-yl)ethyl)-2-amino-2-methylpropanamide] | 203
9 | CC(C)(N)C(=O)N[C@H](Cc1c[nH]c2ccccc12)c1nnc(CCc2c[nH]c3ccccc23)n1Cc1ccc(F)cc1 [compound 29, (R)—N-(1-(5-(2-(1H-indol-3-yl)ethyl)-4-(4-fluorobenzyl)-4H-1,2,4-triazol-3-yl)-2-(1H-indol-3-yl)ethyl)-2-amino-2-methylpropanamide] | 66
10 | O=C(N[C@H](Cc1c[nH]c2ccccc12)c1nnc(CCc2c[nH]c3ccccc23)n1-c1ccccc1)c1ccccn1 [compound 157, N—((R)-1-(5-(2-(1H-indol-3-yl)ethyl)-4-phenyl-4H-1,2,4-triazol-3-yl)-2-(1H-indol-3-yl)ethyl)picolinamide] | 160
11 | CC(C)(N)C(=O)N[C@H](Cc1c[nH]c2ccccc12)c1nnc(CCc2c[nH]c3ccccc23)n1Cc1ccc(Br)cc1 [compound 92, (R)—N-(1-(5-(2-(1H-indol-3-yl)ethyl)-4-(4-bromobenzyl)-4H-1,2,4-triazol-3-yl)-2-(1H-indol-3-yl)ethyl)-2-amino-2-methylpropanamide] | 200
12 | CCc1ccc(-n2c(CCc3c[nH]c4ccccc34)nnc2[C@@H](Cc2c[nH]c3ccccc23)NC(=O)Cc2ccccn2)cc1 [compound 148, N—((R)-1-(5-(2-(1H-indol-3-yl)ethyl)-4-(4-ethylphenyl)-4H-1,2,4-triazol-3-yl)-2-(1H-indol-3-yl)ethyl)-2-(pyridin-2-yl)acetamide] | 96
13 | CCCCCCn1c(CCCc2c[nH]c3ccccc23)nnc1[C@@H](Cc1c[nH]c2ccccc12)NC(=O)C(C)(C)N [compound 16, (R)—N-(1-(5-(3-(1H-indol-3-yl)propyl)-4-hexyl-4H-1,2,4-triazol-3-yl)-2-(1H-indol-3-yl)ethyl)-2-amino-2-methylpropanamide] | 240

These reach a lower IC50. Values come first.

Row | IC50 [nM] | Compound
14 | 51 | CCc1ccc(Cn2c(CCc3ccccc3)nnc2[C@@H](Cc2c[nH]c3ccccc23)NC(=O)Cc2ccccn2)cc1 [compound 82, (R)—N-(1-(4-(4-ethylbenzyl)-5-phenethyl-4H-1,2,4-triazol-3-yl)-2-(1H-indol-3-yl)ethyl)-2-(pyridin-2-yl)acetamide]
15 | 49 | CCc1ccc(-n2c(CCc3c[nH]c4ccccc34)nnc2[C@@H](Cc2c[nH]c3ccccc23)NC(=O)c2ccccn2)cc1 [compound 147, N—((R)-1-(5-(2-(1H-indol-3-yl)ethyl)-4-(4-ethylphenyl)-4H-1,2,4-triazol-3-yl)-2-(1H-indol-3-yl)ethyl)picolinamide]
16 | 38 | COc1ccc(Cn2c(CCc3c[nH]c4ccccc34)nnc2[C@@H](Cc2c[nH]c3ccccc23)NC(=O)CN)c(OC)c1 [compound 69, (R)—N-(1-(5-(2-(1H-indol-3-yl)ethyl)-4-(2,4-dimethoxybenzyl)-4H-1,2,4-triazol-3-yl)-2-(1H-indol-3-yl)ethyl)-2-aminoacetamide]
17 | 28 | Cc1ccc(Cn2c(CCc3c[nH]c4ccccc34)nnc2[C@@H](Cc2c[nH]c3ccccc23)NC(=O)C(C)(C)N)cc1 [compound 34, (R)—N-(1-(5-(2-(1H-indol-3-yl)ethyl)-4-(4-methylbenzyl)-4H-1,2,4-triazol-3-yl)-2-(1H-indol-3-yl)ethyl)-2-amino-2-methylpropanamide]
18 | 14 | CC(C)(N)C(=O)N[C@H](Cc1c[nH]c2ccccc12)c1nnc(CCCc2c[nH]c3ccccc23)n1CCc1ccccc1 [compound 3, (R)—N-(1-(5-(3-(1H-indol-3-yl)propyl)-4-phenethyl-4H-1,2,4-triazol-3-yl)-2-(1H-indol-3-yl)ethyl)-2-amino-2-methylpropanamide]
19 | 14 | COc1ccc(Cn2c(CCc3ccccc3)nnc2[C@@H](Cc2c[nH]c3ccccc23)NC(=O)c2cnccn2)cc1 [compound 76, (R)—N-(1-(4-(4-methoxybenzyl)-5-phenethyl-4H-1,2,4-triazol-3-yl)-2-(1H-indol-3-yl)ethyl)pyrazine-2-carboxamide]
20 | 9 | COc1ccc(Cn2c(CCc3c[nH]c4ccccc34)nnc2[C@@H](Cc2c[nH]c3ccccc23)NC(=O)[C@@H]2CCCN2)cc1 [compound 89, (S)—N—((R)-1-(5-(2-(1H-indol-3-yl)ethyl)-4-(4-methoxybenzyl)-4H-1,2,4-triazol-3-yl)-2-(1H-indol-3-yl)ethyl)pyrrolidine-2-carboxamide]
21 | 5.9 | COc1ccc(Cn2c(CCc3ccccc3)nnc2[C@@H](Cc2c[nH]c3ccccc23)NC(=O)C2CCOCC2)cc1 [compound 184, N—((R)-1-(4-(4-methoxybenzyl)-5-phenethyl-4H-1,2,4-triazol-3-yl)-2-(1H-indol-3-yl)ethyl)-tetrahydro-2H-pyran-4-carboxamide]
22 | 3 | COc1ccc(Cn2c(CCc3ccccc3)nnc2[C@@H](Cc2c[nH]c3ccccc23)NC(=O)Cc2ccccn2)cc1 [compound 51, (R)—N-(1-(4-(4-methoxybenzyl)-5-phenethyl-4H-1,2,4-triazol-3-yl)-2-(1H-indol-3-yl)ethyl)-2-(pyridin-2-yl)acetamide]
23 | 1.8 | COc1ccc(Cn2c(CCc3c[nH]c4ccccc34)nnc2[C@@H](Cc2c[nH]c3ccccc23)NC(=O)c2ccccn2)c(OC)c1 [compound 73, (R)—N-(1-(5-(2-(1H-indol-3-yl)ethyl)-4-(2,4-dimethoxybenzyl)-4H-1,2,4-triazol-3-yl)-2-(1H-indol-3-yl)ethyl)picolinamide]
24 | 0.3 | COc1ccc(Cn2c(CCc3c[nH]c4ccccc34)nnc2[C@@H](Cc2c[nH]c3ccccc23)NC(=O)C2CCNCC2)cc1 [compound 45, (R)—N-(1-(5-(2-(1H-indol-3-yl)ethyl)-4-(4-methoxybenzyl)-4H-1,2,4-triazol-3-yl)-2-(1H-indol-3-yl)ethyl)piperidine-4-carboxamide]
